# Experiments:
# HCT-116 cells = assay: Cell survival (MTT assay), HCT-116; assay type: cell-based, human; settings: Homo sapiens, HCT-116, 48 h
# Protocol: (§1) The survival of cells was determined by MTT (3-(4,5-Dimethylthiazol-2yl-)-2,5-diphenyl tetrazolium bromide) assay (ATCC, Manassas, VA, USA). In principle, the viable cell number is directly proportional to the purple formazan color of the reduced MTT dye, which can be quantitatively measured by spectrophotometry. Briefly, 1,500 cells were plated in quadruplets in 96-well flat-bottom tissue culture plates. After treatment with compounds for certain periods as described in respective figure legends, 10 μl of MTT reagent was added to each well and incubated at 37°C for 4 h to allow the formation of purple color crystals of formazan. In total, 100 μl of detergent solution was added to each well, and the reaction mixture was incubated in dark for 2–4 h at room temperature. The developed color density was then measured spectrophotometrically at 570 nm using the POLARstar Omega micro-plate reader (BMG Labtech, Inc., Cary, NC, USA).
# [1] = tested on: HCoEpiC normal colonic epithelial cell line; assay: Cell survival (MTT assay), HCoEpiC; assay type: cell-based; settings: Homo sapiens, drug alone, 48 h
# Protocol: as §1
# LoVo cells = assay: Cell survival (MTT assay), LoVo; assay type: cell-based; settings: Homo sapiens, drug alone, 48 h
# Protocol: as §1
# SW480 cells = assay: Cell survival (MTT assay), SW480; assay type: cell-based; settings: Homo sapiens, drug alone, 48 h
# Protocol: as §1
# [2] = tested on: FOLFOX-resistant-HCT116 cells; assay: Cell survival (MTT assay), FOLFOX-resistant-HCT116; assay type: cell-based; settings: Homo sapiens, FOLFOX-resistant HCT-116, 48 h
# Protocol: (§2) In some experiments, 5-FU, leucovorin and oxaliplatin (FOLFOX)-resistant-HCT-116 and FOLFOX-resistant-HT29 cells were used. These cells were obtained from Dr. Adhip P. Majumdar (John D. Dingell VA Medical Center, Detroit, MI). These cells were generated by exposure to clinically relevant doses and schedules. The exposing schedule was for 12 cycles; each cycle lasted for one week. Briefly, the cells were first exposed to FOLFOX (25 μM 5-FU and 0.625 μM oxaliplatin) for 72 hours. The surviving cells were then cultured in normal medium without the drugs for 4 to 5 days. This cycle was repeated 12 times. The surviving cells were then split and exposed to higher doses of FOLFOX (50 μM 5-FU + 1.25 μM oxaliplatin or 100 μM 5-FU + 2.5 μM oxaliplatin) for 2 to 3 days per week for approximately 4 weeks. […]
# (§3) The survival of cells was determined by MTT (3-(4,5-Dimethylthiazol-2yl-)-2,5-diphenyl tetrazolium bromide) assay (ATCC, Manassas, VA, USA). In principle, the viable cell number is directly proportional to the purple formazan color of the reduced MTT dye, which can be quantitatively measured by spectrophotometry. […] The developed color density was then measured spectrophotometrically at 570 nm using the POLARstar Omega micro-plate reader (BMG Labtech, Inc., Cary, NC, USA).
# [3] = tested on: FOLFOX-resistant-HT29 cells; assay: Cell survival (MTT assay), FOLFOX-resistant-HT29; assay type: cell-based; settings: Homo sapiens, FOLFOX-resistant HT-29, 48 h
# Protocol: as §2, §3
# [4] = tested on: Chk1 phosphorylation in HCT-116 cells; assay: Western blot of total and phosphorylated Chk1, HCT-116; assay type: cell-based, human; settings: NSC49L alone, 24 h
# Protocol: (§4) The levels of various proteins were determined by Western blot analysis with our previously described procedure. The antibodies for phospho-Chk1(Ser317), phospho-Chk1(Ser317), phospho-Chk1(Ser319), phospho-Chk1(Ser345), Chk1, and GAPDH were purchased from Cell Signaling Technology (Danvers, MA, USA).
# [5] = tested on: Chk1 phosphorylation in CA2 cells; assay: Western blot of total and phosphorylated Chk1, CA2; assay type: cell-based, human; settings: NSC49L alone, 24 h
# Protocol: as §4
# HCT116(p53+/+) cells = assay: MTT assay, IC50 of HU, HCT116(p53+/+); assay type: cell-based, human; settings: HU combined with NSC49L, 72 h
# Protocol: as §1
# [6] = tested on: γH2AX(S139P)-foci in HCoEpiC cells; assay: γH2AX(S139P)-foci IHC staining, HCoEpiC; assay type: cell-based, human; settings: NSC49L alone or in combination with 5-FU, 24 h
# [7] = Pharmacokinetic analysis in CD1 mice; assay type: in vivo, male CD1 mice; settings: 20 mg/kg body weight, IP, plasma
# Protocol: Pharmacokinetic analysis of NSC30049 in CD1 mice was determined by Pharmaron, Inc. (Louisville, KY, USA). Mice were injected intraperitoneally (IP) with NSC49L (20 mg/kg body weight) and approximately 0.04 ml blood was collected at 0, 5, 15 and 30 min, 1, 2, 4, 8 and 24 h time point. Blood of each sample was transferred into plastic micro-centrifuge tubes containing 2 μl of Heparin (1,000 IU). Samples were stored in a freezer at −75 ± 15°C prior to analysis. Concentrations of NSC49L in the plasma samples was analyzed using a LC-MS/MS method. WinNonlin® (Phoenix®, version 6.1) software was used for pharmacokinetic calculations. The following pharmacokinetic parameters were calculated from the plasma concentration versus time data: T1/2, Cmax, AUClast, AUCinf, AUCextra%, Number of Points for Regression. The pharmacokinetic data is described using mean ± standard deviation (SD) and n = 3.
# [8] = Maximum tolerated dose and pathological analysis of organs; assay type: in vivo, male SCID mice
# Protocol: We have determined the MTD of NSC49L from male homozygous CB17 scid/scid (SCID) mice obtained from Tacomic Farms (Germantown, NY, USA). The mice were treated subcutaneously at 25, 50, and 75 mg/kg body weight for 5 consecutive days followed by observation for an additional 7 days. Every day body weight was recorded and behavioral changes were monitored in the treated versus control animals. After the 7th day animals were sacrificed and the organs from the mice treated at 75 mg/kg body weight were processed for pathological examination. Different organs were fixed in 10% buffered formalin, then sectioned and processed into paraffin blocks. Tissue sections were cut 4–5 μm thick and stained with hematoxylin and eosin. Histologic differences between control (A) and treated (B) mice were recorded and photomicrographs were taken with Olympus, BX41 microscope with attached camera.
smiles,measurement,setting,value
ClC/C=C/C[N+]12CN3CN(CN(C3)C1)C2 [NSC49L],IC50,"HCT-116 cells; MTT assay, Figure 1B, three experiments",3.9 µM
same,IC50,"HCT-116 cells; drug alone, MTT, Table 1, four estimations",2.8 ± 0.5 µM
same,IC50,[1],31.9 ± 0.9 µM
same,IC50,LoVo cells,4.2 ± 0.1 µM
same,IC50,SW480 cells,4.4 ± 0.2 µM
same,IC50,[2],5.4 µM
same,IC50,[3],3.1 µM
same,Chk1(S317P) and Chk1(S296P) levels,[4],no effect
same,Chk1(S345P) levels,[4],dose-dependent increase
same,Chk1(S317P) and Chk1(S296P) levels,[5],very little change
same,Chk1(S345P) level,[5],increase in a dose-dependent manner
same,IC50 of HU,HCT116(p53+/+) cells,further decreased
same,replication stress-mediated DNA damage (γH2AX(S139P)-foci),[6],no effect
same,AUC_%Extrap_obs,[7],0.187 ± 293%
same,AUC(0-inf),"[7]; male, CD1, mouse",1310 ± 89 ng·h/mL
same,AUC(0-t),"[7]; male, CD1, mouse",1310 ± 86 ng·h/mL
same,Cmax,"[7]; male, CD1, mouse",5530 ng/mL
same,Tmax,"[7]; male, CD1, mouse",4.98 min
same,half-life,"[7]; male, CD1, mouse, n = 3",14 ± 5.88 min
same,AUC,"[7]; male, CD1, mouse, read-out: AUC (bioavailability)",1310 ± 86 ng·h/mL
same,Histologic sections of organs,"[8]; 75 mg/kg body weight, bone marrow, brain, kidney, liver, lung, pancreas",no significant differences between control and treated mice
same,"Body weight, behavior, pathological abnormalities","[8]; 25, 50 and 75 mg/kg body weight, 5 consecutive days, 7 days observation, treated versus control","no change in body weight, behavior, or pathological abnormalities"

# Reference: paper PMC5593639, “NSC30049 inhibits Chk1 pathway in 5-FU-resistant CRC bulk and stem cell populations” (Oncotarget, 2017)
